Assay results: patent publication US7700552B2, “Macrocyclic inhibitors of hepatitis C virus” (Medivir AB, priority 2005, dated 2010)

How the values were obtained:
[1] = tested on: HCV replicons (NS3-NS5B regions of HCV type 1b) in Huh-7 luc/neo cells; assay: HCV replicon assay (Huh-Luc cells, luciferase readout); type: cell-based; conditions: Hepatitis C virus, Huh-7, 72 h, HCV type 1b replicon, three days incubation, luciferase activity
From the text: The compounds of formula (I) were examined for activity in the inhibition of HCV RNA replication in a cellular assay. […] The cellular assay was based on a bicistronic expression construct, as described by Lohmann et al. (1999) Science vol. 285 pp. 110-113 with modifications described by Krieger et al. (2001) Journal of Virology 75: 4614-4624, in a multi-target screening strategy. In essence, the method was as follows.
The assay utilized the stably transfected cell line Huh-7 luc/neo (hereafter referred to as Huh-Luc). This cell line harbors an RNA encoding a bicistronic expression construct comprising the wild type NS3-NS5B regions of HCV type 1b translated from an Internal Ribosome Entry Site (IRES) from encephalomyocarditis virus (EMCV), preceded by a reporter portion (FfL-luciferase), and a selectable marker portion (neo^R, neomycine phosphotransferase). […]
The replicon cells were plated in 384 well plates in the presence of the test and control compounds which were added in various concentrations. Following an incubation of three days, HCV replication was measured by assaying luciferase activity (using standard luciferase assay substrates and reagents and a Perkin Elmer ViewLux™ ultraHTS microplate imager). […] The inhibitory activity of the compound on luciferase activity was monitored on the Huh-Luc cells, enabling a dose-response curve for each test compound.

[2] = target: T1, full-length hepatitis C NS3 protease enzyme with NS4A cofactor (HCV NS3/4A protease complexes) (Hepatitis C virus genotype 1a, UniProt P27958); assay: HCV NS3/4A protease inhibition assay (enzymatic); type: biochemical; conditions: full-length NS3 1 nM, 25 μM NS4A cofactor, 0.5 μM depsipeptide substrate, 30° C., competitive inhibition model
T1 construct: full-length hepatitis C NS3 protease enzyme
Protocol: [Landro, 1997 #Biochem 36 9340-9348]. […] The solutions were stored at −20° C. between measurements.
The final concentration of DMSO in the assay sample is adjusted to 3.3%. The rate of hydrolysis is corrected for inner filter effects according to published procedures. [Liu, 1999 Analytical Biochemistry 267 331-335]. […] A minimum of two replicates are performed for all measurements.

T1 sequence (P27958 1027-1657, one chain of several): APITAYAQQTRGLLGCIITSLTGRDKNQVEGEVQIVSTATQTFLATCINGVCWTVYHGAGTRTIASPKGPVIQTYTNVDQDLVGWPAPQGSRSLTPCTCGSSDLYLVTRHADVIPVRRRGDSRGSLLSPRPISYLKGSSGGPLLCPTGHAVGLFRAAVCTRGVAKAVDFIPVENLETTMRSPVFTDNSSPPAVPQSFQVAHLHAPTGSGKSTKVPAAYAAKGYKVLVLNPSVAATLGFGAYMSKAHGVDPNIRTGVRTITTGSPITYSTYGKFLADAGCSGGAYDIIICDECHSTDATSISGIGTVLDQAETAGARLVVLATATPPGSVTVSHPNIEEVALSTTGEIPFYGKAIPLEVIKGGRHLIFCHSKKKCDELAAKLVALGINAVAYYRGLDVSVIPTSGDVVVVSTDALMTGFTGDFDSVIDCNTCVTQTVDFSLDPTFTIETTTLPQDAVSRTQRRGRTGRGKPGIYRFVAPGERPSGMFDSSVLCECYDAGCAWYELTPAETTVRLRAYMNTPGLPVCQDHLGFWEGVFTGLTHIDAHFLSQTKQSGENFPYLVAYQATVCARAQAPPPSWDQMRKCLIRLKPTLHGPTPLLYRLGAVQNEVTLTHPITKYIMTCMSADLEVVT

Structure (SMILES)	EC50 [1] [nM]	Ki [2] [nM]
COc1ccc2c(O[C@@H]3C[C@H]4C(=O)N[C@]5(C(=O)O)CC5/C=C\CCCCN(N(C)C)C(=O)[C@@H]4C3)cc(-c3ccccc3)nc2c1 (stereo partly shown) [Example 88, 13-Dimethylamino-17-(7-methoxy-2-phenyl-quinolin-4-yloxy-2,14-dioxo-3,13-diaza-tricyclo[13.3.0.0*4,6*]octadec-7-ene-4-carboxylic acid]	1000 to 10000	100 to 2000
COc1ccc2c(O[C@@H]3C[C@H]4C(=O)N[C@]5(C(=O)NS(=O)(=O)C6CC6)CC5/C=C\CCCCN(N(C)C)C(=O)[C@@H]4C3)cc(-c3ccccc3)nc2c1 (stereo partly shown) [Example 89, Cyclopropanesulphonic acid [13-dimethylamino-17-(7-methoxy-2-phenyl-quinolin-4-yloxy)-2,14-dioxo-3,13-diaza-tricyclo[13.3.0.0*4,6*]octadec-7-ene-4-carbonyl]-amide]	0.5 to 49	0.1 to 4.9
